In brackets after ≈: the same amount, converted by molar mass. Activity calls are given as the source filed them. No cut-off for these calls is given here.
How the values were obtained:
Escherichia coli [1] = assay: Antibacterial activity against Escherichia coli KCTC 1682 after 24 hrs; type: functional; conditions: KCTC 1682, 24 h
Pseudomonas aeruginosa [2] = assay: Antibacterial activity against Pseudomonas aeruginosa KCTC 1637 after 24 hrs; type: functional; conditions: KCTC 1637, 24 h
Salmonella typhimurium = assay: Antibacterial activity against Salmonella typhimurium KCTC 11926 after 24 hrs; type: functional, Salmonella enterica subsp. enterica serovar Typhimurium; conditions: Salmonella enterica, KCTC 11926, 24 h
[3] = tested on: Staphylococcus epidermidis; assay: Antibacterial activity against Staphylococcus epidermidis KCTC 1917 after 24 hrs; type: functional; conditions: KCTC 1917, 24 h
Staphylococcus aureus [4] = assay: Antibacterial activity against Staphylococcus aureus KCTC 1621 after 24 hrs; type: functional; conditions: KCTC 1621, 24 h
Erythrocyte = assay: Hemolytic activity in human RBC after 1 hr; type: ADME, cell-based
[5] = Therapeutic index, ratio of MHC10 for human RBC to MIC for Escherichia coli KCTC 1682; type: toxicity; conditions: red blood cells (RBC), pooled result: one value given for 6 cell lines, strains, targets or settings, read-out: TI
RAW264.7 [6] = assay: Cytotoxicity against mouse RAW264.7 cells up to 128 uM after 48 hrs by MTT assay; type: cell-based; conditions: raw264.7, 48 h
RAW264.7 [7] = assay: Anti-inflammatory activity in mouse RAW264.7 cells assessed as reduction in LPS-induced nitric oxide production at 10 to 20 uM after 24 hrs by Griess assay; type: functional, cell-based
RAW264.7 [8] = assay: Anti-inflammatory activity in mouse RAW264.7 cells assessed as reduction in LPS-induced TNF-alpha production at 10 to 20 uM preincubated for 1 hr followed by LPS stimulation measured after 6 hrs by ELISA; type: functional, cell-based
RAW264.7 [9] = assay: Anti-inflammatory activity in mouse RAW264.7 cells assessed as reduction in LPS-induced IL-6 production at 10 to 20 uM preincubated for 1 hr followed by LPS stimulation measured after 6 hrs by ELISA; type: functional, cell-based
RAW264.7 [10] = assay: Anti-inflammatory activity in mouse RAW264.7 cells assessed as reduction in LPS-induced MCP-1 production at 10 to 20 uM preincubated for 1 hr followed by LPS stimulation measured after 6 hrs by ELISA; type: functional, cell-based
RAW264.7 [11] = assay: Anti-inflammatory activity in mouse RAW264.7 cells assessed as reduction in LPS-induced iNOS mRNA expression at 5 uM after 6 hrs by RT-PCR analysis; type: functional, cell-based
RAW264.7 [12] = assay: Anti-inflammatory activity in mouse RAW264.7 cells assessed as reduction in LPS-induced TNF-alpha mRNA expression at 10 uM after 3 hrs by RT-PCR analysis; type: functional, cell-based
RAW264.7 [13] = assay: Anti-inflammatory activity in mouse RAW264.7 cells assessed as reduction in LPS-induced IL-6 mRNA expression at 10 uM after 3 hrs by RT-PCR analysis; type: functional, cell-based
Staphylococcus aureus [14] = assay: Antibacterial activity against methicillin resistant Staphylococcus aureus CCARM 3089 after 24 hrs; type: functional; conditions: CCARM 3089, 24 h
Staphylococcus aureus [15] = assay: Antibacterial activity against methicillin resistant Staphylococcus aureus CCARM 3090 after 24 hrs; type: functional; conditions: CCARM 3090, 24 h
Staphylococcus aureus [16] = assay: Antibacterial activity against methicillin resistant Staphylococcus aureus CCARM 3095 after 24 hrs; type: functional; conditions: CCARM 3095, 24 h
Pseudomonas aeruginosa [17] = assay: Antibacterial activity against multidrug-resistant Pseudomonas aeruginosa CCARM 2109 after 24 hrs; type: functional; conditions: CCARM 2109, 24 h
Enterococcus faecium = assay: Antibacterial activity against Vancomycin-resistant Enterococcus faecium ATCC 51559 after 24 hrs; type: functional; conditions: ATCC 51559, 24 h
Escherichia coli [18] = assay: Antibacterial activity against Escherichia coli KCTC 1682 in presence of 150 mM NaCl after 24 hrs; type: functional; conditions: KCTC 1682, 24 h
Escherichia coli [19] = assay: Antibacterial activity against Escherichia coli KCTC 1682 in presence of 4.5 mM KCl after 24 hrs; type: functional; conditions: KCTC 1682, 24 h
Escherichia coli [20] = assay: Antibacterial activity against Escherichia coli KCTC 1682 in presence of 6 uM NH4Cl after 24 hrs; type: functional; conditions: KCTC 1682, 24 h
Escherichia coli [21] = assay: Antibacterial activity against Escherichia coli KCTC 1682 in presence of 1 mM MgCl2 after 24 hrs; type: functional; conditions: KCTC 1682, 24 h
Escherichia coli [22] = assay: Antibacterial activity against Escherichia coli KCTC 1682 in presence of 2.5 mM CaCl2 after 24 hrs; type: functional; conditions: KCTC 1682, 24 h
Escherichia coli [23] = assay: Antibacterial activity against Escherichia coli KCTC 1682 in presence of 20% human serum after 24 hrs; type: functional; conditions: KCTC 1682, 24 h
Staphylococcus aureus [24] = assay: Antibacterial activity against Staphylococcus aureus KCTC 1621 in presence of 6 uM NH4Cl after 24 hrs; type: functional; conditions: KCTC 1621, 24 h
Staphylococcus aureus [25] = assay: Antibacterial activity against Staphylococcus aureus KCTC 1621 in presence of 1 mM MgCl2 after 24 hrs; type: functional; conditions: KCTC 1621, 24 h
Staphylococcus aureus [26] = assay: Antibacterial activity against Staphylococcus aureus KCTC 1621 in presence of 20% human serum after 24 hrs; type: functional; conditions: KCTC 1621, 24 h
Staphylococcus aureus [27] = assay: Ratio of MIC for Staphylococcus aureus KCTC 1621 in presence of 20% human serum to MIC for Escherichia coli KCTC 1682 in presence of 20% human serum; type: functional
Pseudomonas aeruginosa [28] = assay: Antibiofilm activity against multidrug-resistant Pseudomonas aeruginosa CCARM 2095 after 24 hrs by crystal violet staining based assay; type: functional
Pseudomonas aeruginosa [29] = assay: Synergistic antibacterial activity against multidrug-resistant Pseudomonas aeruginosa CCARM 2095 after 72 hrs in presence of chloramphenicol by chequerboard assay; type: functional
Pseudomonas aeruginosa [30] = assay: Synergistic antibacterial activity against multidrug-resistant Pseudomonas aeruginosa CCARM 2095 after 72 hrs in presence of ciprofloxacin by chequerboard assay; type: functional
Staphylococcus aureus [31] = assay: Antibacterial activity against Staphylococcus aureus KCTC 1621 assessed as cell membrane disruption at 2 times MIC within 4 mins by Sytox Green dye based fluorescence spectrophotometer assay; type: functional, organism-based
Staphylococcus aureus [32] = assay: Antibacterial activity against Staphylococcus aureus KCTC 1621 assessed as cytoplasmic membrane depolarization at 2 times MIC by disC3-5 dye based fluorescence assay; type: functional, organism-based
Staphylococcus aureus [33] = assay: Potency index, ratio of LL-37 MIC to compound MIC for methicillin resistant Staphylococcus aureus CCARM 3089; type: functional
Staphylococcus aureus [34] = assay: Potency index, ratio of LL-37 MIC to compound MIC for methicillin resistant Staphylococcus aureus CCARM 3090; type: functional
Staphylococcus aureus [35] = assay: Potency index, ratio of LL-37 MIC to compound MIC for methicillin resistant Staphylococcus aureus CCARM 3095; type: functional
Pseudomonas aeruginosa [36] = assay: Potency index, ratio of LL-37 MIC to compound MIC for multidrug-resistant Pseudomonas aeruginosa CCARM 2109; type: functional
Staphylococcus aureus [37] = assay: Potency index, ratio of melittin MIC to compound MIC for methicillin resistant Staphylococcus aureus CCARM 3090; type: functional
Staphylococcus aureus [38] = assay: Potency index, ratio of melittin MIC to compound MIC for methicillin resistant Staphylococcus aureus CCARM 3095; type: functional
Pseudomonas aeruginosa [39] = assay: Potency index, ratio of melittin MIC to compound MIC for multidrug-resistant Pseudomonas aeruginosa CCARM 2095; type: functional
Lipid bilayer = assay: Binding affinity to EYPE/EYPG small unilamellar vesicles assessed as intrinsic tryptophan acrylamide quenching constant by fluorescence assay (reference value: 5.95 to 7.56 /M)
[40] = Binding affinity to EYPC/cholesterol small unilamellar vesicles assessed as intrinsic tryptophan acrylamide quenching constant by fluorescence assay (reference value: 5.95 to 7.56 /M)

CC[C@H](C)[C@H](NC(=O)[C@H](CC(C)C)NC(=O)[C@H](CCCCN)NC(=O)[C@@H](NC(=O)[C@@H](NC(=O)[C@H](CCCNC(=N)N)NC(=O)[C@@H](N)CCCCN)[C@@H](C)CC)C(C)C)C(=O)N[C@@H](CC(C)C)C(=O)N[C@@H](CCCCN)C(=O)N[C@@H](Cc1c[nH]c2ccccc12)C(=O)N[C@@H](CC(C)C)C(=O)N[C@@H](CCCNC(=N)N)C(N)=O
MIC (Escherichia coli [1]): 8 µM (≈ 12.5 µg/mL)
MIC (Pseudomonas aeruginosa [2]): 8 µM (≈ 12.5 µg/mL)
MIC (Salmonella typhimurium): 2 µM (≈ 3.13 µg/mL)
MIC [3]: 4 µM (≈ 6.26 µg/mL)
MIC (Staphylococcus aureus [4]): 4 µM (≈ 6.26 µg/mL)
MHC10 (Erythrocyte): 25 µM
selectivity ratio [5]: 4.4
Activity (RAW264.7 [6]): Non-Toxic
Activity (RAW264.7 [7]): Active
Activity (RAW264.7 [8]): Active
Activity (RAW264.7 [9]): Active
Activity (RAW264.7 [10]): Active
Activity (RAW264.7 [11]): Active
Activity (RAW264.7 [12]): Active
Activity (RAW264.7 [13]): Active
MIC (Staphylococcus aureus [14]): 4 µM (≈ 6.26 µg/mL)
MIC (Staphylococcus aureus [15]): 8 µM (≈ 12.5 µg/mL)
MIC (Staphylococcus aureus [16]): 4 µM (≈ 6.26 µg/mL)
MIC (Pseudomonas aeruginosa [17]): 8 µM (≈ 12.5 µg/mL)
MIC (Enterococcus faecium): 4 µM (≈ 6.26 µg/mL)
MIC (Escherichia coli [18]): 8 µM
MIC (Escherichia coli [19]): 8 µM
MIC (Escherichia coli [20]): 8 µM
MIC (Escherichia coli [21]): 8 µM
MIC (Escherichia coli [22]): 8 µM
MIC (Escherichia coli [23]): 8 µM
MIC (Staphylococcus aureus [24]): 2 µM
MIC (Staphylococcus aureus [25]): 8 µM
MIC (Staphylococcus aureus [26]): 8 µM
Ratio (Staphylococcus aureus [27]): 2 - 8
MBIC90 (Pseudomonas aeruginosa [28]): 16 µM
fractional inhibitory concentration index (FICI) (Pseudomonas aeruginosa [29]): 0.25
fractional inhibitory concentration index (FICI) (Pseudomonas aeruginosa [30]): 0.3125
Activity (Staphylococcus aureus [31]): Active
Activity (Staphylococcus aureus [32]): Active
Ratio (Staphylococcus aureus [33]): 2 - 4
Ratio (Staphylococcus aureus [34]): 2 - 4
Ratio (Staphylococcus aureus [35]): 2 - 4
Ratio (Pseudomonas aeruginosa [36]): 2 - 4
Ratio (Staphylococcus aureus [37]): 2 - 4
Ratio (Staphylococcus aureus [38]): 2 - 4
Ratio (Pseudomonas aeruginosa [39]): 2 - 4
KSV (Lipid bilayer): 1.12 M⁻¹
KSV [40]: 1.66 M⁻¹
